Reference: patent US9833497B2, “Human originated EGF domain proteins and use of the same” (CHENGDU SOURCEBIO LIMITED-LIABILITY COMPANY, priority 2013, dated 2017)

Assays:
Assay type in all cases: cell-based
[1] = system: Serratia marcescens; assay: MIC against Gram-negative bacteria: Serratia marcescens; settings: for MIC: S. marcescens, 10 h cultivation at 37° C.; for MIC (μg/mL) S. marcescens: Serratia marcescens
Outline: (§1)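 First, colonies from LB agar were grown in LB at 37° C, 185 rpm, to McFarland turbidity 0.5, then centrifuged and resuspended in fresh LB. Next, wells received 5×10^5 CFU/mL bacteria plus two-fold serially diluted EGF domain protein (triplicate). Finally, plates were shaken at 37° C and the no-growth concentration taken as MIC.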

[2] = system: Moraxella catarrhalis; assay: MIC against Gram-negative bacteria: Moraxella catarrhalis; settings: for MIC: M. catarrhalis, 10 h cultivation at 37° C.; for MIC (μg/mL) M. catarrhalis: Moraxella catarrhalis
Outline: as §1

[3] = system: Pseudomonas aeruginosa; assay: MIC against Gram-negative bacteria: Pseudomonas aeruginosa; settings: for MIC: P. aeruginosa, 10 h cultivation at 37° C.; for MIC (μg/mL) P. aeruginosa: Pseudomonas aeruginosa
Outline: as §1

[4] = system: Proteus vulgaris; assay: MIC against Gram-negative bacteria: Proteus vulgaris; settings: for MIC: P. vulgaris, 10 h cultivation at 37° C.; for MIC (μg/mL) P. vulgaris: Proteus vulgaris
Outline: as §1

[5] = system: Aeromonas hydrophila; assay: MIC against Gram-negative bacteria: Aeromonas hydrophila; settings: for MIC: A. hydrophila, 10 h cultivation at 37° C.; for MIC (μg/mL) A. hydrophila: Aeromonas hydrophila
Outline: as §1

[6] = system: E. coli BL21; assay: MIC against Gram-negative bacteria: E. coli BL21; settings: for MIC / MIC (μg/mL) E. coli BL21: E. coli BL21; for MIC: 10 h cultivation at 37° C.
Outline: as §1

[7] = system: E. coli DH5α; assay: Antibacterial activity: MIC and growth curve against E. coli DH5α in 96-well plate; settings: minimal inhibitory concentration against E. coli DH5α; 96-well plate, 5×10^5 CFU/mL, 37° C., judged after 8 h
Outline: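 Log-phase DH5α (OD600 about 0.5, 37° C, 185 rpm in LB) was pelleted, resuspended in fresh LB and seeded at 5×10^5 CFU/mL with recombinant protein at 50, 25 and 12.5 μg/mL (two-fold series), in triplicate. Plates were shaken at 175 rpm, 37° C, and OD600 was read every 30 min. MIC was the lowest concentration with no growth.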

[8] = system: Citrobacter diversus; assay: MIC against Gram-negative bacteria: Citrobacter diversus; settings: for MIC: C. diversus, 10 h cultivation at 37° C.; for MIC (μg/mL) C. diversus: Citrobacter diversus
Outline: as §1

[9] = system: Klebsiella pneumonia; assay: MIC against Gram-negative bacteria: Klebsiella pneumonia; settings: for MIC: K. pneumonia, 10 h cultivation at 37° C.; for MIC (μg/mL) K. pneumonia: Klebsiella pneumonia
Outline: as §1

[10] = system: Proteus mirabilis; assay: MIC against Gram-negative bacteria: Proteus mirabilis; settings: for MIC: P. mirabilis, 10 h cultivation at 37° C.; for MIC (μg/mL) P. mirabilis: Proteus mirabilis
Outline: as §1

[11] = system: Enterobacter cloacae; assay: MIC against Gram-negative bacteria: Enterobacter cloacae; settings: for MIC: E. cloacae, 10 h cultivation at 37° C.; for MIC (μg/mL) E. cloacae: Enterobacter cloacae
Outline: as §1

[12] = 96-well plate, 5×10^5 CFU/mL, 37° C., 10 h

PRT919 (NIDDCPGNNCKNGGACVDGVNTYNCRCPPEWTGQYCT; listed as Homo sapiens)
MIC [1]: 50 µg/mL | MIC [2]: 12.5 µg/mL | MIC [3]: 50 µg/mL | MIC [4]: 25 µg/mL | MIC [5]: 50 µg/mL | MIC [6]: 12.5 µg/mL | MIC [7]: 50 µg/mL | MIC [8]: 25 µg/mL | MIC [9]: 12.5 µg/mL | MIC [10]: 25 µg/mL | MIC [11]: 25 µg/mL

PRT552 (CACGPAAEGSECHPQSGQCHCRPGTMGPQCRECAPGYWGLPEQGCRR; listed as Homo sapiens)
MIC against S. marcescens [1, 12]: 12.5 µg/mL | MIC against M. catarrhalis [2, 12]: 25 µg/mL | MIC against P. aeruginosa [3, 12]: 50 µg/mL | MIC against P. vulgaris [4, 12]: 25 µg/mL | MIC against A. hydrophila [5, 12]: 12.5 µg/mL | MIC against E. coli BL21 [6, 12]: 100 µg/mL | MIC [7]: 25 µg/mL | MIC against C. diversus [8, 12]: 50 µg/mL | MIC against K. pneumonia [9, 12]: 12.5 µg/mL | MIC against P. mirabilis [10, 12]: 12.5 µg/mL | MIC against E. cloacae [11, 12]: 50 µg/mL

PRT141 (DPCENNPCLHGGTCNANGTMYGCSCDQGFAGENCE; listed as Homo sapiens)
MIC (μg/mL) S. marcescens [1, 12]: 50 µg/mL | MIC (μg/mL) M. catarrhalis [2, 12]: 12.5 µg/mL | MIC (μg/mL) P. aeruginosa [3, 12]: 12.5 µg/mL | MIC (μg/mL) P. vulgaris [4, 12]: 12.5 µg/mL | MIC (μg/mL) A. hydrophila [5, 12]: 25 µg/mL | MIC (μg/mL) E. coli BL21 [6, 12]: 25 µg/mL | MIC [7]: 12.5 µg/mL | MIC (μg/mL) C. diversus [8, 12]: 50 µg/mL | MIC (μg/mL) K. pneumonia [9, 12]: 25 µg/mL | MIC (μg/mL) P. mirabilis [10, 12]: 50 µg/mL | MIC (μg/mL) E. cloacae [11, 12]: 12.5 µg/mL

PRT920 (DVDECQLMPNACQNGGTCHNTHGGYNCVCVNGWTGEDCS; listed as Homo sapiens)
MIC [1]: 50 µg/mL | MIC [2]: 12.5 µg/mL | MIC [3]: 25 µg/mL | MIC [4]: 12.5 µg/mL | MIC [5]: 25 µg/mL | MIC [6]: 25 µg/mL | MIC [7]: 12.5 µg/mL | MIC [8]: 50 µg/mL | MIC [9]: 50 µg/mL | MIC [10]: 50 µg/mL | MIC [11]: 12.5 µg/mL

PRT954 (NIDDCPNHRCQNGGVCVDGVNTYNCRCPPQWTGQFCT; listed as Homo sapiens)
MIC [1]: 25 µg/mL | MIC [2]: 50 µg/mL | MIC [3]: 12.5 µg/mL | MIC [4]: 12.5 µg/mL | MIC [5]: 12.5 µg/mL | MIC [6]: 25 µg/mL | MIC [7]: 50 µg/mL | MIC [8]: 25 µg/mL | MIC [9]: 25 µg/mL | MIC [10]: 25 µg/mL | MIC [11]: 50 µg/mL

PRT102 (DRCLPNYCEHGGECSQSWSTFHCNCTNTGYRGATC; listed as Homo sapiens)
MIC (μg/mL) S. marcescens [1, 12]: 25 µg/mL | MIC (μg/mL) M. catarrhalis [2, 12]: 12.5 µg/mL | MIC (μg/mL) P. aeruginosa [3, 12]: 12.5 µg/mL | MIC (μg/mL) P. vulgaris [4, 12]: 12.5 µg/mL | MIC (μg/mL) A. hydrophila [5, 12]: 12.5 µg/mL | MIC (μg/mL) E. coli BL21 [6, 12]: 12.5 µg/mL | MIC [7]: 12.5 µg/mL | MIC (μg/mL) C. diversus [8, 12]: 25 µg/mL | MIC (μg/mL) K. pneumonia [9, 12]: 12.5 µg/mL | MIC (μg/mL) P. mirabilis [10, 12]: 25 µg/mL | MIC (μg/mL) E. cloacae [11, 12]: 12.5 µg/mL

PRT33 (ACELHTFGRTCKERCSGQEGCKSYVFCLPDPYGCSCATGWKGLQCN; listed as Homo sapiens)
MIC (μg/mL) S. marcescens [1, 12]: 12.5 µg/mL | MIC (μg/mL) M. catarrhalis [2, 12]: 12.5 µg/mL | MIC (μg/mL) P. aeruginosa [3, 12]: 12.5 µg/mL | MIC (μg/mL) P. vulgaris [4, 12]: 25 µg/mL | MIC (μg/mL) A. hydrophila [5, 12]: 12.5 µg/mL | MIC (μg/mL) E. coli BL21 [6, 12]: 50 µg/mL | MIC [7]: 12.5 µg/mL | MIC (μg/mL) C. diversus [8, 12]: 12.5 µg/mL | MIC (μg/mL) K. pneumonia [9, 12]: 12.5 µg/mL | MIC (μg/mL) P. mirabilis [10, 12]: 25 µg/mL | MIC (μg/mL) E. cloacae [11, 12]: 25 µg/mL
